From patent US12264170B2, “Antimicrobial organosilanes” (TOPIKOS SCIENTIFIC, INC., priority 2019, dated 2025)
“And” between values parts separate entries of the source, which are not always exact repeats. Equal entries are not always repeated.

What was measured:
P. aeruginosa ATCC 27853 [1] = experiment: MIC microdilution assay; type: cell-based, Pseudomonas aeruginosa; conditions: CAMHB, 35±2° C. 18 to 20 hours, two values given
Description: (§1) Strain numbers starting with “ATCC” were acquired from the American Type Culture Collection (Manassas, VA), while strain numbers starting with “CDC” were acquired from the Centers for Disease Control and Prevention (Atlanta, GA). All strains were maintained as −80° C. frozen glycerol stocks. S. aureus and P. aeruginosa were grown overnight on Tryptic Soy Agar (TSA) plates at 35±2° C., ambient atmosphere, while S. pyogenes was grown overnight on TSA+5% defibrinated sheep blood at 35±2° C., 5% CO2. All fungal species (i.e. C. albicans, C. auris and C. herbarum) were grown on Sabouraud Dextrose Agar (SDA) plates. C. herbarum was grown at 25±2° C. for 5 to 7 days, while all other fungal strains were grown at 35±2° C. overnight.
(§2) Test articles Compound 2 (batch #2G13A0.368) and Compound 23 (batch #2G17A0.372) were received and stored at 4° C. The antibiotic Tobramycin and antifungal Amphotericin B were used as quality control (QC) compounds for the MIC assay. Stock solutions of 3.2 mg/mL Tobramycin (Sigma-Aldrich, cat #T1783-500MG) and 3.2 mg/mL Amphotericin B (CP Lab Chemicals, cat #TOK-A007-1G) were prepared in sterile ultrapure water.
(§3) For bacteria strains, a few colonies of each strain were collected with a sterile swab and used to make a McFarland 0.5 standard solution (approximately 1×10^8 CFU/mL) in sterile PBS. The McFarland was then diluted 1:180 in Cation Adjusted Muller-Hinton Broth (CAMHB) for S. aureus and P. aeruginosa, and in […]+5% defibrinated sheep blood for S. pyogenes. 90 μL of this inoculum was combined with 10 μL of the 10× test article in a 96-well plate for a final concentration of 1×.
(§4) All bacterial-strain MIC 96-well plates were incubated at 35±2° C. for 18 to 20 hours, while all Candida MIC 96-well plates were incubated at 35±2° C. for 24 to 48 hours. C. herbarum MIC 96-well plates were incubated at 25±2° C. for 3 to 5 days, until growth was visible in the growth control wells. After incubation, the 96-well plates were examined visually and on a spectrophotometer at absorbance OD650. […]

P. aeruginosa ATCC 27853 [2] = experiment: MBC/MFC determination; type: cell-based, Pseudomonas aeruginosa; conditions: plated after 18 to 20 hours incubation, two values given
Description: (§5) 10 μL of liquid from each test condition was plated on the appropriate agar media for each test strain. For bacteria strains, plating for MBC occurred after 18 to 20 hours incubation. For the Candida species, plating for MFC occurred after 48 hours incubation, while C. herbarum plating for MFC occurred 3 days after incubation when growth in growth control wells was visually observed. Once the liquid from the 96-well plate has been allowed to air dry in a biosafety cabinet, the agar plates were incubated under the appropriate conditions and colony formation was assessed. MBC/MFC is defined as the lowest concentration of a compound in which no colonies were recovered.

S. pyogenes ATCC 51339 = experiment: MBC/MFC determination; type: cell-based, Steptococcus pyogenes; conditions: plated after 18 to 20 hours incubation, two values given
Description: as §5

[3] = system: Staphylococcus aureus ATCC 33591; experiment: MIC microdilution assay; type: cell-based; conditions: S. aureus ATCC 33591; CAMHB; 35±2° C. 18 to 20 hours; two values given
Description: as §1, §2, §3, §4

Candida auris CDC 0381 [4] = experiment: MIC microdilution assay; type: cell-based; conditions: C. auris CDC 0381; RPMI media; 35±2° C. 24 to 48 hours; two values given
Description: as §1, §2, §3
For the yeasts C. albicans and C. auris, a McFarland 0.5 standard solution in sterile PBS was similarly prepared (approximately 1×10^6 CFU/mL) and was subsequently diluted 1:180 in RPMI 1640 media buffered with 0.165 M MOPS at pH 7.0 (herein referred to as “RPMI media”). 90 μL of the Candida inoculum was combined with 10 μL of the 10× test article in a 96-well plate for a final concentration of 1×.
All bacterial-strain MIC 96-well plates were incubated at 35±2° C. for 18 to 20 hours, while all Candida MIC 96-well plates were incubated at 35±2° C. for 24 to 48 hours. C. herbarum MIC 96-well plates were incubated at 25±2° C. for 3 to 5 days, until growth was visible in the growth control wells. After incubation, the 96-well plates were examined visually and on a spectrophotometer at absorbance OD650. MIC is defined as the lowest concentration of a compound in which no visible growth is observed.

[5] = system: Cladosporium herbarum ATCC MYA-4682; experiment: MBC/MFC determination; type: cell-based; conditions: C. herbarum ATCC MYA-4682; plated 3 days after incubation; two values given
Description: as §5

[6] = system: Candida albicans ATCC 90028; experiment: MBC/MFC determination; type: cell-based; conditions: C. albicans ATCC 90028; plated after 48 hours incubation; two values given
Description: as §5

Candida auris CDC 0381 [7] = experiment: MBC/MFC determination; type: cell-based; conditions: C. auris CDC 0381; plated after 48 hours incubation; two values given
Description: as §5

Structure (SMILES): CCCCCCCCCCCCCCCCCC[N+](C)(C)CCC[Si](OCC(CO)(CO)NCC(O)CS(=O)(=O)[O-])(OCC(CO)(CO)NCC(O)CS(=O)(=O)[O-])OCC(CO)(CO)NCC(O)CS(=O)(=O)O.[Cl-].[Na+].[Na+] (centres unmarked) [Compound 2]
- MIC (P. aeruginosa ATCC 27853 [1]): >64 µg/mL
- MBC/MFC (P. aeruginosa ATCC 27853 [2]): >64 µg/mL
- MBC/MFC (S. pyogenes ATCC 51339): >64 µg/mL and 64 µg/mL
- MIC [3]: 1 µg/mL
- MIC (Candida auris CDC 0381 [4]): 1 µg/mL
- MBC/MFC [5]: 2 µg/mL
- MBC/MFC [6]: 2 µg/mL and 1 µg/mL
- MBC/MFC (Candida auris CDC 0381 [7]): 1 µg/mL
